Target: ATP-dependent translocase ABCB1 (Homo sapiens, UniProt P08183)
Assay: TP_TRANSPORTER: inhibition of Doxorubicin transepithelial transport (basal to apical) (Doxorubicin: 3 uM, Quinidine: 50 uM) in MDR1-expressing LLC-PK1 cells
Format: functional, cell-based
Conditions: pig, llc-pk1, 50 µM

ATP-dependent translocase ABCB1, sequence (P08183 whole entry): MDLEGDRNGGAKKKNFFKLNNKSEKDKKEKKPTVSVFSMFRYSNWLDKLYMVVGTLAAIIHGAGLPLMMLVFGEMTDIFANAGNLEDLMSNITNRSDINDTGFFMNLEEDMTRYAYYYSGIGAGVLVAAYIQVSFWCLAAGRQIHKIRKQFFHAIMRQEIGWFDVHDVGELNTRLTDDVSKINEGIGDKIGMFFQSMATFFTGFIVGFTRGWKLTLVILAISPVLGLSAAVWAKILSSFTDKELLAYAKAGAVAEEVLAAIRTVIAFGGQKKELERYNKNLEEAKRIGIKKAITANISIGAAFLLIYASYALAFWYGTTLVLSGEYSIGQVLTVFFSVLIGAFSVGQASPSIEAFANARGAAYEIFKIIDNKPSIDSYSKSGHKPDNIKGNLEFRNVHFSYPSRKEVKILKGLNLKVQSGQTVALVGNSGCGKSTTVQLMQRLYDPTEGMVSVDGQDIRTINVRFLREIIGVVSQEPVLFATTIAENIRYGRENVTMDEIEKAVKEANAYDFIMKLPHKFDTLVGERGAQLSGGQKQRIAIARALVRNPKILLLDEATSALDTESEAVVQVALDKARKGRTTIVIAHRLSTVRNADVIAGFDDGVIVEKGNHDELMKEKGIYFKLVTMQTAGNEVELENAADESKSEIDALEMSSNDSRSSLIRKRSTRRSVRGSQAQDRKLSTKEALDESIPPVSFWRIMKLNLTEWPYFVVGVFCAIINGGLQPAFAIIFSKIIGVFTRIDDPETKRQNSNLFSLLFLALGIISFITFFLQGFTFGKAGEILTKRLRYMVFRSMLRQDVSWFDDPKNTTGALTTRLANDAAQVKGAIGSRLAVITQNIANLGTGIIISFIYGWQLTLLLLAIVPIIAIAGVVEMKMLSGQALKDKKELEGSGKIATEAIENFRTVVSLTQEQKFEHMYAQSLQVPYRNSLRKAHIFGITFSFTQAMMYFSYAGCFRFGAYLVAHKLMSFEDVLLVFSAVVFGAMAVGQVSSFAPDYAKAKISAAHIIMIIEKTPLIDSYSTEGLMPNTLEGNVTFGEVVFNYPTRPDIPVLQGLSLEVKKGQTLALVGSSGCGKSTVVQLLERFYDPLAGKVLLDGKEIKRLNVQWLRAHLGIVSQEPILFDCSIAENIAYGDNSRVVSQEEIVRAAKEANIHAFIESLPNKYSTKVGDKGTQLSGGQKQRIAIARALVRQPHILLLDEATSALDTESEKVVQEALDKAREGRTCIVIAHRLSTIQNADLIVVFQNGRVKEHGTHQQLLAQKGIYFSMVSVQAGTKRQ

Activity: is not an inhibitor [-]
Compound: C=C[C@H]1C[N@@]2CC[C@H]1C[C@H]2[C@H](O)c1ccnc2ccc(OC)cc12 [QUININE]

Reference: ChEMBL document CHEMBL2074433, “Specificity of doxorubicin versus rhodamine-123 in assessing P-glycoprotein functionality in the LLC-PK1, LLC-PK1:MDR1 and Caco-2 cell lines” (Eur J Pharm Sci, 2000)
